Experimental data published in patent US6423749B1, “Pharmaceutical composition for injection based on paracetamol” (Aziende Chimiche Riunite Angelini Francesco A.C.R.A.F. …, priority 1998, dated 2002).

What was measured:
[1] = Solubility of paracetamol, HPLC analysis of supernatant after centrifugation; type: physicochemical; conditions: stirred 2 hours at room temperature
Procedure: The PEG400 was added to the paracetamol at room temperature. This mixture was then kept stirring at room temperature for 2 hours.
4 ml of the above-mentioned suspension were centrifuged in an Eppendorf tube at 25° C. for 30 minutes at a speed of 7,000 rpm.
The absolute ethanol was added to the paracetamol at room temperature. This mixture was then kept stirring at room temperature for 2 hours.
4 ml of the above-mentioned suspension were centrifuged in an Eppendorf tube at 4° C. for 40 minutes at a speed of 7,000 rpm.

[2] = cited from earlier work

SMILES: CC(=O)Nc1ccc(O)cc1 [paracetamol]
- solubility of the paracetamol ([1]; in PEG-400, centrifuged at 25° C. for 30 minutes): 18-19%
- solubility of the paracetamol ([1]; in absolute ethanol, centrifuged at 4° C. for 40 minutes): 9-10%
- amount of paracetamol dissolved ([2]; 30% propylene glycol, 40% PEG400 and 30% water, 20° C., WO 98/05314): about 200 mg/ml
- solubility in water ([2]; water, The Merck Index, 12th edition): very slightly soluble
